In patent publication EP0326331B1, “Substituted quinolines and cinnolines” (Dow AgroSciences LLC, priority 1988, dated 1989):

Experiments:
Assay type in all cases: in vivo
corn rootworm = assay: Mite/insect screen, CRW; conditions: percent mortality; CRW RATE 12.00 PPM; read-out: CRW RESULTS %
Procedure, shortened: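 Corn rootworm mortality (%) was evaluated following standard exposure times. Test material was emulsified by dissolution in acetone/alcohol (1:1) containing sulfonate/nonionic emulsifier blends TOXIMUL R (23 g/L) and TOXIMUL S (13 g/L), and water-diluted to the indicated doses.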

[1] = test system: southern armyworm (Spodopetra eridania Cramer); assay: Mite/insect screen, SAW; conditions: Spodoptera eridania, percent mortality; SAW, SM & MA RATE 200 PPM; read-out: SAW RESULTS %
Procedure, shortened: (§1)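 Percent mortality was scored after standard exposure periods, following spraying of leaves to runoff (both surfaces, 10 psi, 1 h drying) with water dilutions of compound in emulsifier-containing acetone/alcohol (50:50). Armyworms received excised treated leaves in dishes.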

[2] = test system: Twospotted spider mites (Tetranychus urticae Koch); assay: Mite/insect screen, SM; conditions: Tetranychus urticae, percent mortality; SAW, SM & MA RATE 200 PPM; read-out: SM RESULTS %
Procedure, shortened: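 Read-out: percent mortality after standard exposure periods. Test solutions were water dilutions of compound dissolved in acetone/alcohol (50:50) with emulsifier blends; leaves were sprayed to runoff on both surfaces and air-dried for one hour before exposure.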

[3] = test system: Erysiphe graminis tritici (powdery mildew); assay: Test 1 greenhouse foliar spray screen, powdery mildew on wheat; conditions: disease control rating, foliar spray on wheat, 400 ppm (+++ at 100 ppm)
[4] = test system: Puccinia recondita tritici (leaf rust); assay: Test 1 greenhouse foliar spray screen, leaf rust on wheat; conditions: disease control rating, foliar spray on wheat, 400 ppm (+++ at 100 ppm)
[5] = test system: Pseudoperonospora cubensis (downy mildew); assay: Test 1 greenhouse foliar spray screen, downy mildew on squash; conditions: disease control rating, foliar spray on squash, 400 ppm (+++ at 100 ppm)
[6] = test system: melon aphids (Aphis gossypii Glover); assay: Mite/insect screen, MA; conditions: Aphis gossypii, percent mortality; SAW, SM & MA RATE 200 PPM; read-out: MA RESULTS %
Procedure, shortened: as §1

[7] = test system: Venturia inaequalis (apple scab); assay: Test 1 greenhouse foliar spray screen, apple scab on apple seedling; conditions: disease control rating, foliar spray on apple seedling, 400 ppm (+++ at 100 ppm)
[8] = test system: Septoria tritici (leaf blotch); assay: Test 1 greenhouse foliar spray screen, leaf blotch on wheat; conditions: disease control rating, foliar spray on wheat, 400 ppm (+++ at 100 ppm)
[9] = test system: Pyricularia oryzae (rice blast); assay: whole plant or invertebrate; conditions: disease control rating, foliar spray on rice, 400 ppm (+++ at 100 ppm)
[10] = test system: Botrytis cinerea (gray mold); assay: Test 1 greenhouse foliar spray screen, gray mold on grape berries; conditions: disease control rating, spray on grape berries, 400 ppm (+++ at 100 ppm)

Row | Structure (SMILES) | mortality at 12 ppm (corn rootworm) | mortality at 200 ppm [1] | mortality at 200 ppm [2] | POWD MDEW [3] | LEAF RUST [4] | DOWN MDEW [5] | mortality at 200 ppm [6] | APPL SCAB [7] | LEAF BLOT [8] | RICE BLAST [9] | GRAY MOLD [10]
1 | CC(Cc1ccccc1)Nc1ccnc2ccccc12 (stereo not drawn) [Example 24, N-(1-methyl-2-phenylethyl)-4-quinolinamine] | 0% | 0% | 0% | + (20-89% control at 400 ppm) | + (20-89% control at 400 ppm) | +++ (90-100% control at 100 ppm) | 0% | - (0-19% control at 400 ppm) | - (0-19% control at 400 ppm) | + (20-89% control at 400 ppm) | - (0-19% control at 400 ppm)
2 | Clc1cc(NCCc2ccccc2)c2ccccc2n1 [Example 25, 2-chloro-N-(2-phenylethyl)-4-quinolinamine] | 0% | 0% | 0% | + (20-89% control at 400 ppm) | ++ (90-100% control at 400 ppm) | +++ (90-100% control at 100 ppm) | 0% | - (0-19% control at 400 ppm) | - (0-19% control at 400 ppm) | + (20-89% control at 400 ppm) | - (0-19% control at 400 ppm)
3 | OC(CNc1ccnc2ccccc12)c1ccccc1 (stereo not drawn) [Example 26, α-[(4-quinolinylamino)methyl]benzenemethanol] | 0% | 0% | 0% | + (20-89% control at 400 ppm) | - (0-19% control at 400 ppm) | +++ (90-100% control at 100 ppm) | 0% | - (0-19% control at 400 ppm) | - (0-19% control at 400 ppm) | + (20-89% control at 400 ppm) | - (0-19% control at 400 ppm)
4 | Cc1cccc2c(NCCc3ccccc3)ccnc12 [Example 27, 8-methyl-N-(2-phenylethyl)-4-quinolinamine] | 0% | 0% | 0% | + (20-89% control at 400 ppm) | + (20-89% control at 400 ppm) | +++ (90-100% control at 100 ppm) | 0% | - (0-19% control at 400 ppm) | - (0-19% control at 400 ppm) | ++ (90-100% control at 400 ppm) | - (0-19% control at 400 ppm)
5 | Cc1cc(C)c2nccc(NCCc3ccccc3)c2c1 [Example 28, 6,8-dimethyl-N-(2-phenylethyl)-4-quinolinamine] | 0% | 0% | 0% | + (20-89% control at 400 ppm) | + (20-89% control at 400 ppm) | +++ (90-100% control at 100 ppm) | 0% | - (0-19% control at 400 ppm) | - (0-19% control at 400 ppm) | ++ (90-100% control at 400 ppm) | - (0-19% control at 400 ppm)
6 | Cc1ccc2nccc(NCCc3ccccc3)c2c1 [Example 30, 6-methyl-N-(2-phenylethyl)-4-quinolinamine] | 0% | 0% | 0% | - (0-19% control at 400 ppm) | + (20-89% control at 400 ppm) | +++ (90-100% control at 100 ppm) | 0% | - (0-19% control at 400 ppm) | - (0-19% control at 400 ppm) | + (20-89% control at 400 ppm) | - (0-19% control at 400 ppm)
